The values that follow come from publication PMC12777753 (Emerging Microbes & Infections, 2025).

Values after ≈ are worked out from the molar mass of the structure shown. Structures can show the parent of a compound that is named as a salt. Where two headings read alike, the source gives them in different places. Marks after values point to notes of the source that are not given here.

Assay [1] has as its system clade 2.3.4.4b HPAI A(H5N1) viruses (B3.13 and D1.1). Put plainly: microbe, parasite or virus in culture. It counts as cell-based. Particulars: for EC50: Influenza A virus, H5N1, read-out: 50% effective concentrations (EC50s), range over viruses.
For assay [2], the system named is A/bald eagle/FL/2022 (H5N1). Nature of the assay: microbe, parasite or virus in culture. It counts as cell-based, influenza A(H5N1) virus. Particulars: Influenza A virus.
In assay [3] the test system is A/Wisconsin/53/2009 (H1N1)pdm09. Put plainly: microbe, parasite or virus in culture. Particulars: Influenza A virus, H1N1, read-out: EC50 ± SD. It counts as cell-based, influenza A(H1N1)pdm09 virus.
For assay [4], the system named is A/California/147/2024 (CA/147, wildtype). Details: species or system BALB/c mice. Particulars: mouse, in vivo; for Survival (%): po.
Assay [5] concerns the target NA of Genotype D1.1 viruses (n = 7) (Influenza A virus, UniProt Q9Q0U7). It counts as biochemical, influenza A(H5N1) virus. The conditions noted are these: read-out: NA inhibitor IC50, median.
Assay [6] concerns the target NA of A/Illinois/45/2019 (H1N1)pdm09 (Influenza A virus, UniProt A0A0X9QTS2). It counts as biochemical. The conditions noted are these: read-out: NA inhibitor IC50 ± SD.
The target of assay [7] is recNA A/Washington/239/2024 (genotype D1.1) WT (Influenza A virus, UniProt Q8QPK2). It counts as biochemical, influenza A(H5N1) virus.
In assay [8] the target is NA of A/California/148/2024 (Influenza A virus, UniProt Q9Q0U7). It counts as biochemical, influenza A(H5N1) virus. Particulars: read-out: NA inhibitor IC50 ± SD.
For assay [9], the target named is NA of A/Louisiana/50/2017 (H3N2) (Influenza A virus, UniProt A0A193ACB1). It counts as biochemical. Particulars: read-out: NA inhibitor IC50 ± SD.
In assay [10] the target is NA of A/California/151/2024 (Influenza A virus, UniProt Q9Q0U7). It counts as biochemical, influenza A(H5N1) virus. Particulars: read-out: NA inhibitor IC50 ± SD.
Assay [11] deals with NA of A/Illinois/08/2018 (H1N1)pdm09 (Influenza A virus, UniProt A0A0X9QTS2). It counts as biochemical. Particulars: read-out: NA inhibitor IC50 ± SD.
For assay [12], the target named is NA of A/California/147/2024 (Influenza A virus, UniProt Q9Q0U7). It counts as biochemical, influenza A(H5N1) virus. Particulars: read-out: NA inhibitor IC50 ± SD.
The next assay deals with NA of A/Iowa/24/2024 (Influenza A virus, UniProt Q9Q0U7). It counts as biochemical, influenza A(H5N1) virus. The conditions noted are these: read-out: NA inhibitor IC50 ± SD.
Assay [13] concerns the target NA of A/bald eagle/FL/2022 (H5N1) (Influenza A virus, UniProt Q9Q0U7). It counts as biochemical. Particulars: read-out: NA inhibitor IC50 ± SD.
The next assay has as its target NA of A/Wyoming/01/2025 (Influenza A virus, UniProt Q9Q0U7). It counts as biochemical, influenza A(H5N1) virus. The conditions noted are these: read-out: NA inhibitor IC50 ± SD.
The target of assay [14] is NA of A/California/153/2024 (Influenza A virus, UniProt Q9Q0U7). It counts as biochemical, influenza A(H5N1) virus. Particulars: read-out: NA inhibitor IC50 ± SD.
Assay [15] concerns the target NA of A/California/173/2024 (Influenza A virus, UniProt Q9Q0U7). It counts as biochemical, influenza A(H5N1) virus. The conditions noted are these: read-out: NA inhibitor IC50 ± SD.
The target in assay [16] is recNA A/California/148/2024 (genotype B3.13) WT (Influenza A virus, UniProt Q9Q0U7). It counts as biochemical, influenza A(H5N1) virus.
For assay [17], the target named is NA of A/California/155/2024 (Influenza A virus, UniProt Q9Q0U7). It counts as biochemical, influenza A(H5N1) virus. Particulars: read-out: NA inhibitor IC50 ± SD.
The target of assay [18] is NA of Genotype B3.13 viruses (n = 10) (Influenza A virus, UniProt Q9Q0U7). It counts as biochemical, influenza A(H5N1) virus. Particulars: read-out: NA inhibitor IC50, median.
The next assay has as its target NA of A/Nevada/10/2025 (Influenza A virus, UniProt Q9Q0U7). It counts as biochemical, influenza A(H5N1) virus. Particulars: read-out: NA inhibitor IC50 ± SD.
Assay [19] deals with NA of A/California/152/2024 (Influenza A virus, UniProt Q9Q0U7). It counts as biochemical, influenza A(H5N1) virus. The conditions noted are these: read-out: NA inhibitor IC50 ± SD.
Assay [20] has as its system Genotype D1.1 viruses (n = 7). Put plainly: microbe, parasite or virus in culture. It counts as cell-based, influenza A(H5N1) virus. The conditions noted are these: Influenza A virus, read-out: PA inhibitor EC50, median.
The next assay relates to A/California/155/2024. Nature of the assay: microbe, parasite or virus in culture. Particulars: Influenza A virus, read-out: PA inhibitor EC50 ± SD. It counts as cell-based, influenza A(H5N1) virus.
The test system of the next assay is A/California/148/2024. Put plainly: microbe, parasite or virus in culture. Particulars: Influenza A virus, read-out: PA inhibitor EC50 ± SD. It counts as cell-based, influenza A(H5N1) virus.
The test system of another assay is A/California/151/2024. Nature of the assay: microbe, parasite or virus in culture. It counts as cell-based, influenza A(H5N1) virus. The conditions noted are these: Influenza A virus, read-out: PA inhibitor EC50 ± SD.
The subject of assay [21] is A/Louisiana/50/2017 (H3N2). Nature of the assay: microbe, parasite or virus in culture. It counts as cell-based. The conditions noted are these: Influenza A virus, H3N2, read-out: PA inhibitor EC50 ± SD.
The test system of the next assay is A/California/152/2024. Put plainly: microbe, parasite or virus in culture. It counts as cell-based, influenza A(H5N1) virus. The conditions noted are these: Influenza A virus, read-out: PA inhibitor EC50 ± SD.
The next assay relates to A/California/153/2024. Nature of the assay: microbe, parasite or virus in culture. It counts as cell-based, influenza A(H5N1) virus. The conditions noted are these: Influenza A virus, read-out: PA inhibitor EC50 ± SD.
Another assay concerns A/California/147/2024. Nature of the assay: microbe, parasite or virus in culture. Particulars: Influenza A virus, read-out: PA inhibitor EC50 ± SD. It counts as cell-based, influenza A(H5N1) virus.
A further assay concerns A/Nevada/10/2025. Nature of the assay: microbe, parasite or virus in culture. Particulars: Influenza A virus, read-out: PA inhibitor EC50 ± SD. It counts as cell-based, influenza A(H5N1) virus.
Assay [22] concerns A/Illinois/08/2018 (H1N1)pdm09. Put plainly: microbe, parasite or virus in culture. It counts as cell-based, influenza A(H1N1)pdm09 virus. Particulars: Influenza A virus, H1N1, read-out: PA inhibitor EC50 ± SD.
The test system of assay [23] is Genotype B3.13 viruses (n = 10). Nature of the assay: microbe, parasite or virus in culture. It counts as cell-based, influenza A(H5N1) virus. The conditions noted are these: Influenza A virus, read-out: PA inhibitor EC50, median.

On to `NC12CC3CC(CC(C3)C1)C2` [Amantadine, amantadine hydrochloride], for which the EC50 in [1] is 9.25 to 21.5 ng/mL; in assay [2] (H5N1, read-out: EC50 ± SD), 20.5 ± 4.96 ng/mL; in [3], 25.9 ± 1.51 ng/mL.

Regarding `CC(N)C12CC3CC(CC(C3)C1)C2` (stereo not drawn) [Rimantadine, rimantadine], the EC50 is 3.14 to 6.48 ng/mL (≈ 0.0175 to 0.0361 µM) in assay [1]; 5.74 ± 1.31 ng/mL in assay [2] (H5N1, read-out: EC50 ± SD); 6.08 ± 0.9 ng/mL (≈ 0.0339 µM) in assay [3].

With `COC(=O)OCOc1c2n(ccc1=O)N([C@@H]1c3ccccc3SCc3c1ccc(F)c3F)[C@@H]1COCCN1C2=O` [Baloxavir marboxil, baloxavir marboxil], in assay [4] (5 mg/kg), the “Mean TTD (day)” value was 11^c day. The “Wt. Loss (%), mean maximum weight loss” value came out at 5% in assay [4] (5 mg/kg), 6% in [4] (15 mg/kg) and 4% in assay [4] (45 mg/kg). In addition, the entries for the “Survival (%)” value in [4] (5 mg/kg), in [4] (15 mg/kg) and in [4] (45 mg/kg) were 7/8 (87.5) %, 8/8 (100) % and 8/8 (100) %, respectively.

On to peramivir, for which the half-maximal inhibitory concentration (IC50) in assay [5] was 0.07 nM; in assay [6], 0.04 ± 0.01 nM; in assay [7], 0.06 nM; in [8] it was 0.07 nM; in [9] it was 0.07 ± 0.01 nM; in assay [10], 0.07 nM. The IC50 amounted to 0.04 ± 0.01 nM in assay [11]; 0.07 nM in assay [12]; 0.07 nM on NA of A/Iowa/24/2024; 0.08 ± 0.02 nM in assay [13]; 0.07 nM at NA of A/Wyoming/01/2025; 0.06 nM in assay [14]. The IC50 in assay [15] is 0.06 nM; in assay [16] it was 0.08 nM; in assay [17] it was 0.08 nM; in assay [18], 0.07 nM; at NA of A/Nevada/10/2025 it was 0.07 nM; in [19], 0.08 nM.

As to `CC(=O)N[C@H]1[C@H]([C@H](O)[C@H](O)CO)OC(C(=O)O)=C[C@@H]1N=C(N)N` [Zanamivir, zanamivir], the IC50 at NA of A/Iowa/24/2024 came out at 0.34 nM; at NA of A/Wyoming/01/2025, 0.46 nM; in assay [15] it was 0.23 nM; in assay [17], 0.16 nM; on NA of A/Nevada/10/2025, 0.36 nM.

`O=C1c2c(O)c(=O)ccn2N([C@@H]2c3ccccc3SCc3c2ccc(F)c3F)[C@@H]2COCCN12` [Baloxavir, baloxavir acid]: the EC50 in assay [20] is 0.34 nM; in the assay on A/California/155/2024 it was 0.41 nM; in the assay with A/California/148/2024, 0.26 nM; in the assay on A/California/151/2024, 0.72 nM; in assay [21] it was 0.8 ± 0.28 nM; in the assay on A/California/152/2024, 0.45 nM. The EC50 with A/California/153/2024 is 0.59 nM; in the assay on A/California/147/2024, 0.4 nM; with A/Nevada/10/2025, 0.34 nM; in assay [22], 0.96 ± 0.37 nM; in assay [2] (H5N1, read-out: PA inhibitor EC50 ± SD), 0.39 ± 0.16 nM; in [23] it was 0.5 nM. The “EC50s, in words” value in [1] is listed as “sub-nanomolar”. In [4], the “infectious virus in any organs of treated mice” value is “not detected”. The “loss of initial weight” value in assay [4] (5 mg/kg) is listed as at most 6%. In addition, in assay [4] (5 mg/kg), the “Survival (%)” value is given as 87.5%.

oseltamivir carboxylate: the IC50 was 0.28 ± 0.04 nM in assay [6] and 0.34 ± 0.03 nM in assay [11].

In general, IC50 refers to the concentration that inhibits the measured activity by half.
